Data on 13 compounds can be found in PubChem BioAssay (NCI).

Some test systems named below: HOP-92 NSCLC; HCC-2998 colon; SF-268 CNS; ACHN renal; EKVX NSCLC; A498 renal; SK-MEL-28 melanoma; OVCAR-4 ovarian; IGROV1 ovarian.
Holding throughout (assay): NCI-60 cell line screen, 48 h

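The compound was tested at five concentrations on cells cultured in 96-well plates, with a 48-hour exposure period. The concentration for 50% growth inhibition is given as GI50. TGI marks complete inhibition of growth.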

Regarding `COc1ccc(N2C(=O)C3c4[nH]c5ccccc5c4C4CCCCC4C3C2=O)cc1` (stereo unspecified), the TGI with HOP-92 NSCLC is 50.3 µM; with HCC-2998 colon, 40.7 µM; in the assay on SF-268 CNS it was 26.4 µM; with ACHN renal, more than 100 µM; in the assay with EKVX NSCLC it was 37.7 µM; in the assay with A498 renal it was 54.4 µM. Besides, the TGI in the assay on SK-MEL-28 melanoma was found to be 42.4 µM; in the assay on OVCAR-4 ovarian, 23.6 µM; in the assay with IGROV1 ovarian it was 64.3 µM.
For `O=S1Nc2c(Cl)cc(Cl)c(Cl)c2S1` (stereo unspecified), the TGI with HOP-92 NSCLC, in the assay with HCC-2998 colon, in the assay with SF-268 CNS, with ACHN renal, with EKVX NSCLC and in the assay with A498 renal was more than 100 µM each time. Moreover, the TGI with SK-MEL-28 melanoma, in the assay with OVCAR-4 ovarian and in the assay on IGROV1 ovarian was more than 100 µM each time.
On to `N#CCC(=O)N1CCCCCCC1`, for which the TGI with HCC-2998 colon, with SF-268 CNS, in the assay on ACHN renal, with EKVX NSCLC, in the assay on A498 renal and with SK-MEL-28 melanoma was more than 100 µM in each case. Further, the TGI in the assay on OVCAR-4 ovarian and in the assay on IGROV1 ovarian was more than 100 µM each time.
Turning to `CCN(CC)CC(=N)N(CC)c1ccccc1`, the TGI in the assay with HOP-92 NSCLC, in the assay on HCC-2998 colon, in the assay on SF-268 CNS, in the assay with ACHN renal, with EKVX NSCLC and in the assay with A498 renal was more than 100 µM in each case. Moreover, the TGI with SK-MEL-28 melanoma, in the assay on OVCAR-4 ovarian and with IGROV1 ovarian was more than 100 µM each time.
Consider `Cn1c(=O)c2/c(n(C)c1=O)=N\C=c1\c(=O)n(C)c(=O)n(C)\c1=N\C=2`, for which the TGI in the assay with HOP-92 NSCLC, in the assay with HCC-2998 colon, in the assay on SF-268 CNS, in the assay on ACHN renal, in the assay on EKVX NSCLC and with A498 renal was more than 100 µM in each case. For the same compound, the TGI with SK-MEL-28 melanoma, with OVCAR-4 ovarian and with IGROV1 ovarian was more than 100 µM throughout.
On to `O=C1CSc2cc([N+](=O)[O-])ccc2N1`, for which the TGI in the assay with HCC-2998 colon, in the assay with SF-268 CNS, with ACHN renal, in the assay on EKVX NSCLC, with A498 renal and in the assay with SK-MEL-28 melanoma was more than 100 µM each time. In addition, the TGI in the assay with OVCAR-4 ovarian and in the assay on IGROV1 ovarian was more than 100 µM throughout.
As for `CC1(C)N=C(c2ccccn2)C(c2ccccn2)=NC1(C)C`, the TGI in the assay with HOP-92 NSCLC, with HCC-2998 colon, with SF-268 CNS, in the assay on ACHN renal, with EKVX NSCLC and in the assay on A498 renal was more than 100 µM throughout. Besides, the TGI in the assay with OVCAR-4 ovarian and in the assay with IGROV1 ovarian was more than 100 µM each time.
Regarding `NC(CSSCC(N)Cc1ccccc1)Cc1ccccc1` (stereo unspecified), the TGI in the assay with HCC-2998 colon, with SF-268 CNS, with ACHN renal, with EKVX NSCLC, in the assay with A498 renal and in the assay on SK-MEL-28 melanoma was more than 100 µM each time. Also, the TGI in the assay on OVCAR-4 ovarian and in the assay with IGROV1 ovarian was more than 100 µM each time.
Regarding `C/C=N\N1C(=O)c2ccccc2C1=O`, the TGI in the assay on HOP-92 NSCLC, with HCC-2998 colon, in the assay on SF-268 CNS, in the assay with ACHN renal, with EKVX NSCLC and in the assay on A498 renal was more than 100 µM each time. Further, the TGI in the assay on SK-MEL-28 melanoma, in the assay on OVCAR-4 ovarian and in the assay on IGROV1 ovarian was more than 100 µM throughout.
Consider `O=c1oc2ccccc2c(O)c1C(C/C(CCN1CCCC1)=N\Nc1ccccc1)c1ccccc1` (stereo unspecified), for which the TGI in the assay with HOP-92 NSCLC is 83.6 µM; in the assay with HCC-2998 colon, more than 100 µM; in the assay with SF-268 CNS, more than 100 µM; in the assay with ACHN renal, more than 100 µM; with EKVX NSCLC, more than 100 µM; with A498 renal it was more than 100 µM. Moreover, the TGI with OVCAR-4 ovarian and in the assay on IGROV1 ovarian was more than 100 µM throughout.
Regarding `O=C(/C=C\c1cccc2ccccc12)c1cccc2ccccc12`, the TGI is 28.4 µM in the assay on HCC-2998 colon; 22.1 µM in the assay on SF-268 CNS; 24.1 µM with ACHN renal; 27.6 µM with EKVX NSCLC; 31.7 µM in the assay with A498 renal; 20.5 µM with SK-MEL-28 melanoma. Besides, the TGI amounted to 36.9 µM with OVCAR-4 ovarian and 25.9 µM with IGROV1 ovarian. Moreover, the values for the GI50 with SF-268 CNS and in the assay on OVCAR-4 ovarian were 4.74 µM and 11.3 µM, respectively.
In the case of `O=C1c2ccccc2C(=O)c2[nH]c(Cc3ccc(F)cc3)nc21`, the TGI in the assay on HOP-92 NSCLC worked out at 74.6 µM; with HCC-2998 colon it was 42.8 µM; in the assay on SF-268 CNS, 66.3 µM; with ACHN renal it was 31.2 µM; with EKVX NSCLC it was 39.8 µM; with SK-MEL-28 melanoma it was 35 µM. Moreover, the TGI in the assay with OVCAR-4 ovarian was 34.9 µM; in the assay on IGROV1 ovarian, 26.2 µM.
For `CN1C/C(=C\C=C\c2ccccc2)C(=O)/C(=C/C=C/c2ccccc2)C1`, the TGI in the assay with HCC-2998 colon, with SF-268 CNS, with ACHN renal, in the assay on EKVX NSCLC, in the assay with A498 renal and in the assay with SK-MEL-28 melanoma was more than 100 µM throughout. Also, the TGI with OVCAR-4 ovarian and in the assay with IGROV1 ovarian was more than 100 µM each time.
